Measurements taken from patent US6627732B1, “Glutathione derivatives and their dosage forms” (Teijin Limited, priority 1998, dated 2003).

Assays:
Stability in rat plasma = format: in vitro ADME; conditions: for Half life in rat plasma: heparinized plasma, diluted as needed with BSA/D-PBS, 250-323 μg/ml
Procedure: (§1) Rat, rabbit, and human plasma
(§2) Heparinized plasma: 30 to 40 parts
(rat plasma was diluted, as needed, with 30 mg-BSA/ml-D-PBS (pH 7.4) for use)

[1] = Stability in rabbit plasma; conditions: rabbit, plasma
Procedure: (1) Bovine serum albumin (hereinafter referred to as BSA), Dulbecco's phosphate buffered saline (hereinafter referred to as D-PBS), swine liver esterase, and rabbit liver esterase were purchased from Sigma, 6-week old male SD rats were purchased from Nippon SLC, and 12-week old or older male Japanese white rabbits were purchased from Ichikawaya. On the day of the incubation experiment described below, blood was drawn from the animals in the presence of heparin, and plasma was separated therefrom for use. Human plasma was obtained from normal healthy males after obtaining their consent.
(2) The glutathione derivatives described in the Examples and Comparative Examples of the present invention were incubated for a fixed time in an enzyme solution having the following composition. Acetonitrile was added to the reaction mixture to inactivate the enzyme thereby to stop the reaction. The concentration of the glutathione derivatives in the deproteinized supernatant was measured by HPLC. For each time point of the esterase enzyme experiment, the mean values from two measurement or more were determined, and for the rats and rabbits the mean values of plasma samples from three individuals were determined. For some of the experiment data, changes with time of percentages relative to initial concentration of the glutathione derivative are shown in FIGS. 2 to 4.
as §1, §2
10 mg-glutathione derivative/ml-ethanol: one part (the final concentration in the reaction mixture is 250-323 μg/ml)

[2] = Stability in human plasma; format: in vitro ADME; conditions: heparinized plasma, 250-323 μg/ml
Description: as §1, §2

[3] = system: human leukemia cell HL-60; assay: HL-60 cell differentiation induction, NBT reducing activity (Example 20); format: cell-based; conditions: 4 days
Procedure: Using the differentiation induction effect on the granulocytes or monocytes/macrophages obtained by culturing the human leukemia cell HL-60 in the presence of 9-cys-retinoic acid (9-cis-RA) or activated vitamin D3 (1α, 25(OH)2D3), and in the coexistence of the glutathione derivatives of Examples and the Comparative Examples of the present invention, the growth-promotion activity was tested.
(1) HL-60 cells used were purchased from the cell bank (Japanese Cancer Research Resource Bank, Cell No. JCRBOO85). In accordance with a standard method, the lyophilized cell stocks that were thawed before the start of the experiment and subcultured were used.
Subculturing was carried out by centrifuging (1500 rpm, 5 minutes) the cells in suspension culture and recovering and by diluting it in a fresh culture liquid at a concentration of about 1/100 (1 to 2×10^4 cells/ml). As the culture liquid, an RPMI 1640 medium containing 10% fetal bovine serum was used.
(2) The cells subcultured in (1) were recovered by centrifugation (1500 rpm, 5 minutes), and were dispersed in the culture liquid at 2×10^4 cells/ml, which were plated on a 24-well culture plate at 1 ml/well. To this system were added the glutathione derivatives of Example 4, Example 11, Comparative Example 1 and Comparative Example 2 and a differentiation induction substance (9-cis-RA or 1α, 25(OH)2D3). Thus, 1 μl per well each of an ethanol solution of the differentiation induction substances 9-cis-RA and 1α, 25(OH)2D3 were added at 5×10^−6 M and 2×10^−6 M, respectively. Then, 1 μl per well each of ethanol solutions of the glutathione derivatives at 1×10^−4 M to 1×10^−2 M was added. As the solvent treatment for the control, 1 μl of ethanol per well was added in stead of the glutathione derivative, and as the single treatment of glutathione derivatives, 1 μl of ethanol per well was added in stead of the differentiation induction substance. After culturing at 37° C. and 5% CO2 for 4 days, the cells were recovered by centrifugation (1500 rpm, 5 minutes).
(3) The measurement of a nitroblue tetrazolium (NBT) reducing activity which is often used for the evaluation of differentiation induction effects on monocytes/macrophages or granulocytic cells was carried out according to the following procedure. Thus, the cells recovered by centrifugation in (2) were suspended in a fresh culture medium, and then NBT was added thereto to […] and 12-O-tetradecanoyl phorbol-13-acetate to 100 nM. After incubating at 37° C. for 25 minutes, cytospin samples were prepared. After air drying, the cells were subjected to Kernechtrot stain, and 500 cells per sample were examined under alight microscope to determine the ratio of the NBT reduction activity-positive cells.
(4) The result of the experiment in which glutathione derivatives at 10^−7 to 10^−5 M were treated together with a differentiation induction substances is shown in Table 4. For a single treatment of each glutathione derivative up to 10^−5 M, no increases in the NBT reducing activity was observed. In a combined treatment of a glutathione derivative and a differentiation induction substance, an enhanced ratio of the NBT reduction activity-positive cells relative to the single treatment with a differentiation induction substance was observed depending on the concentration of the glutathione derivative. There were no major differences observed in the strength of effects between the glutathione derivatives of Examples 4 and 11 and Comparative Examples 1, and 2.

[4] = compound 10^−5 M, Solvent control (EtOH), no differentiation induction substance
[5] = compound 10^−5 M, with 1α,25(OH)2D3 (2 × 10^−9 M)
[6] = compound 10^−5 M, with 9-cis-RA (5 × 10^−9 M)
[7] = compound 10^−6 M, Solvent control (EtOH), no differentiation induction substance
[8] = compound 10^−6 M, with 1α,25(OH)2D3 (2 × 10^−9 M)
[9] = compound 10^−6 M, with 9-cis-RA (5 × 10^−9 M)
[10] = compound 10^−7 M, Solvent control (EtOH), no differentiation induction substance
[11] = compound 10^−7 M, with 1α,25(OH)2D3 (2 × 10^−9 M)
[12] = compound 10^−7 M, with 9-cis-RA (5 × 10^−9 M)

| SMILES | Half life in rat plasma (Stability in rat plasma) [min] | Half life in rabbit plasma [1] [min] | Half life in human plasma [2] [min] | Ratio of NBT reduction activity-positive cells [3, 4] [%] | Ratio of NBT reduction activity-positive cells [3, 5] [%] | Ratio of NBT reduction activity-positive cells [3, 6] [%] | Ratio of NBT reduction activity-positive cells [3, 7] [%] | Ratio of NBT reduction activity-positive cells [3, 8] [%] | Ratio of NBT reduction activity-positive cells [3, 9] [%] | Ratio of NBT reduction activity-positive cells [3, 10] [%] | Ratio of NBT reduction activity-positive cells [3, 11] [%] | Ratio of NBT reduction activity-positive cells [3, 12] [%] | Stability in biological sample solutions such as rat blood (Stability in rat plasma) | Half life in the plasma of experimental animals (Stability in rat plasma; mice and rats) |
| --- | --- | --- | --- | --- | --- | --- | --- | --- | --- | --- | --- | --- | --- | --- |
| CCCCCCCCCCCCCCCCOC(=O)[C@@H](N)CCC(=O)N[C@@H](CSCc1ccccc1)C(=O)N[C@@H](C(=O)OCC)c1ccccc1.Cl [Example 4, Glu(Cys(Bzl)-D-Phg-OEt)-O(Hexadecyl)hydrochloride] | 154 | 1323 | 11086 | 0.2 | 31.3 | 18.0 | 0.2 | 10.3 | 10.4 | 0.2 | 5.7 | 6.7 | – | – |
| CCOC(=O)[C@@H](N)CCC(=O)N[C@@H](CSCc1ccccc1)C(=O)N[C@@H](C(=O)OCC)c1ccccc1.Cl [Comparative Example 1, Glu(Cys(Bzl)-D-Phg-O(Et))-O(Et)hydrochloride, reference compound] | 0.13 | 392 | 643 | 0.4 | 13.0 | 18.8 | 0.2 | 7.6 | 10.1 | 0.2 | 5.4 | 6.3 | very unstable | extremely short half life |
| CCCCCCCCOC(=O)[C@H](NC(=O)[C@H](CSCc1ccccc1)NC(=O)CC[C@H](N)C(=O)OCC)c1ccccc1.Cl [Comparative Example 2, Glu(Cys(Bzl)-D-Phg-O(Octyl))-O(Et)hydrochloride, reference compound] | 0.21 | 238 | 619 | 0.6 | 18.2 | 33.2 | 0.4 | 9.3 | 15.2 | 0.2 | 4.6 | 7.4 | – | – |
